The source of these data is article PMC9245008 (ACS chemical biology, 2022).

As usually defined, the IC50 is the concentration needed to halve the response being measured.

Experiment [1] addresses T1, IRAK4 (Homo sapiens, UniProt Q9NWZ3).
T1 sequence (Q9NWZ3 1-460): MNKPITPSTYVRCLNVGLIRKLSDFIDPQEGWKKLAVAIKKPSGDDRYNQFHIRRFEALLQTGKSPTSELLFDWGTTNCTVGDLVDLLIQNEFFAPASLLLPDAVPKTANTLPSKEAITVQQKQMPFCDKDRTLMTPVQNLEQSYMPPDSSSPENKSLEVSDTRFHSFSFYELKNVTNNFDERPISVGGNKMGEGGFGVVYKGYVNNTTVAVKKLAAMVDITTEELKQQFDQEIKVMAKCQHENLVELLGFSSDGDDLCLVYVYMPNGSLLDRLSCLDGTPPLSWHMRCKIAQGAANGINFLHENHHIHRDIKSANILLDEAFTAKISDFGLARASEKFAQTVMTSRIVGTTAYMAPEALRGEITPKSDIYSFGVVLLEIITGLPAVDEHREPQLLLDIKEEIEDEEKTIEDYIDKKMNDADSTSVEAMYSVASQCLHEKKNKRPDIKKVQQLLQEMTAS
The experiment is described as follows: Potency of takinib analogues against IRAK4. To be noted: IRAK4 IC50 over TAK1 IC50. It counts as biochemical.

Another experiment relates to CIA mouse model. Particulars: 50 mg/kg IP; cited from earlier work.
For another experiment, the target named is T2, TAK1 (Homo sapiens, UniProt O43318).
T2 sequence (O43318 1-303 limits assumed): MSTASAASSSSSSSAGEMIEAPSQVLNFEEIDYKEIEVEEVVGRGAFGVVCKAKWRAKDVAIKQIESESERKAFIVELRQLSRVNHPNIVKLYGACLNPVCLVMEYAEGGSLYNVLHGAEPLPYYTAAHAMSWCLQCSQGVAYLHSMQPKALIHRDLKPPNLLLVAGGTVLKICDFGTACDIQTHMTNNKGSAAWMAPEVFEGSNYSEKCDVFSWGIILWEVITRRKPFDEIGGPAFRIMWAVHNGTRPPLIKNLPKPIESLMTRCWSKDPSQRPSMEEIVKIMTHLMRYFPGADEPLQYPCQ
The experiment is described as follows: Potency of takinib analogues against TAK1. It counts as biochemical.

Experiment [2] concerns the target T1, IRAK4. To be noted: cited from earlier work.

For the compound `CCCn1c(=NC(=O)c2cccc(C(N)=O)c2)[nH]c2ccccc21` [Takinib, N-(1-propyl-1,3-dihydro-2H-benzo[d]imidazol-2-ylidene)isophthalamide], the Ratio at IRAK4 [1] amounted to 13. Besides, the “reduction of mean clinical score” value with CIA mouse model is given as ~ 32%. Moreover, the IC50 at TAK1 was 9 nM; on IRAK4 [2] (read-out: IRAK4 IC50, two independent kinome wide screens) it was roughly 120 nM. Further, on IRAK4 [2], the “IRAK4 less potently inhibited than TAK1” value was 13 fold.
